Source: PubChem BioAssay (NCI)
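48-hour exposure; five concentrations; linearly interpolated endpoints. The concentration for 50% growth inhibition is given as GI50. The concentration for full growth arrest is given as TGI.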

Columns and labels:
Assay in all cases: NCI tumour cell line growth inhibition, 48 h
RXF 393 renal = system: RXF 393 renal
DU-145 prostate = system: DU-145 prostate
MDA-MB-435 = system: MDA-MB-435
SNB-19 CNS = system: SNB-19 CNS
T-47D breast = system: T-47D breast
EKVX NSCLC = system: EKVX NSCLC
HS 578T breast = system: HS 578T breast
MCF7 breast = system: MCF7 breast
RPMI-8226 leukemia = system: RPMI-8226 leukemia
K-562 leukemia = system: K-562 leukemia

| Structure (SMILES) | TGI (RXF 393 renal) [µM] | TGI (DU-145 prostate) [µM] | TGI (MDA-MB-435) [µM] | TGI (SNB-19 CNS) [µM] | TGI (T-47D breast) [µM] | TGI (EKVX NSCLC) [µM] | TGI (HS 578T breast) [µM] | TGI (MCF7 breast) [µM] | GI50 (RPMI-8226 leukemia) [nM] | TGI (RPMI-8226 leukemia) [µM] | GI50 (MCF7 breast) [nM] | GI50 (RXF 393 renal) [nM] | GI50 (DU-145 prostate) [nM] | GI50 (MDA-MB-435) [nM] | GI50 (SNB-19 CNS) [nM] | GI50 (EKVX NSCLC) [nM] | TGI (K-562 leukemia) [µM] | GI50 (T-47D breast) [nM] | GI50 (HS 578T breast) [nM] |
| --- | --- | --- | --- | --- | --- | --- | --- | --- | --- | --- | --- | --- | --- | --- | --- | --- | --- | --- | --- |
| O=C(NC1(C(=O)NNc2nnc(-c3ccccc3)c(-c3ccccc3)n2)C(c2ccccc2)C(c2ccccc2)=NN1c1ccccc1)c1ccccc1 (centres undefined) | > 100 | > 100 | > 100 | > 100 | > 100 | > 100 | > 100 | – | – | – | – | – | – | – | – | – | – | – | – |
| C=C(CC(=O)Nc1ccc(C(=O)OC)o1)C(=O)OC | 33.3 | > 100 | 59 | > 100 | 54.8 | 45 | > 100 | 54 | – | – | – | – | – | – | – | – | – | – | – |
| Cc1cc(N=Cc2c(CO)cnc(C)c2O)c(N=Cc2c(CO)cnc(C)c2O)cc1C.[Zn] | > 100 | > 100 | > 100 | > 100 | > 100 | > 100 | > 100 | > 100 | > 100000 | > 100 | – | – | – | – | – | – | – | – | – |
| Fc1ccc(C2CC(c3cccc(Nc4ccncc4)c3)=NN2c2cc(Cl)cc(Cl)c2)cc1 (centres undefined) | 2.99 | 3.32 | 3.13 | 3.32 | – | 3.38 | – | 4.37 | – | – | 1950 | 1590 | 1850 | 1680 | 1740 | 1710 | – | – | – |
| CC(=O)NC1=C(C)C(=O)c2c(nc3n2CCC3O)C1=O (centres undefined) | 48.3 | – | – | > 100 | – | 51.4 | – | – | – | 50.6 | – | – | – | – | – | – | 44.3 | – | – |
| O=C(NNc1cn[nH]c(=O)c1Cl)/C(=C/c1ccc2c(c1)OCO2)NC(=O)c1ccccc1 | – | > 100 | > 100 | > 100 | > 100 | > 100 | – | > 100 | – | – | – | – | – | – | – | – | – | – | – |
| O=C1OC2(C(F)(F)F)Oc3ccccc3CN2C12CCCCC2 (centres undefined) | 48.9 | > 100 | > 100 | > 100 | > 100 | > 100 | – | > 100 | – | – | – | – | – | – | – | – | 52.6 | – | – |
| CN(C)CCOC(=O)c1ccc(N)cc1 | > 100 | > 100 | > 100 | > 100 | > 100 | – | > 100 | > 100 | – | 75.2 | – | – | – | – | – | – | > 100 | – | – |
| O=c1[nH]c2ccccc2nc1/C=C(\O)C(F)F | > 100 | > 100 | > 100 | > 100 | – | > 100 | > 100 | > 100 | – | > 100 | – | – | – | – | – | – | > 100 | – | – |
| CCOP(=O)(OCC)/C(=C\N1C(=O)CC(=O)NC1=S)C(=O)OC | > 100 | > 100 | > 100 | > 100 | > 100 | > 100 | – | > 100 | – | – | – | – | – | – | – | – | – | – | – |
| CC(=NCCN(CCN=C(C)c1c(O)cc(C)oc1=O)CCN=C(C)c1c(O)cc(C)oc1=O)c1c(O)cc(C)oc1=O | – | – | > 100 | > 100 | > 100 | > 100 | > 100 | > 100 | – | > 100 | – | – | – | – | – | – | > 100 | – | – |
| COc1ccccc1NC(=S)N/N=C(/C)c1ccccn1 | 23.4 | > 100 | > 100 | > 100 | – | > 100 | > 100 | > 100 | – | > 100 | – | – | – | – | – | – | > 100 | – | – |
| Cn1c(-c2ccc[se]2)ccc1-c1ccc(CO)[se]1 | 6.26 | > 78 | > 67.7 | > 100 | – | > 100 | > 100 | > 100 | – | > 100 | – | – | – | – | – | – | > 100 | – | – |
| CC1CCc2c(sc3ncnc(N/N=C/c4ccc(Cl)c(Cl)c4)c23)C1 (centres undefined) | 70.3 | – | – | 74.3 | – | 89.8 | – | – | – | > 100 | – | – | – | – | – | – | > 100 | – | – |
| C[C@@H]1C[C@]2(C[C@@H](C)[C@H]3C(C[C@@]4(C)CCC[C@@H]5C6=C[C@H](CCC34C)OC6=CC(=O)OC5(C)C)O2)OC1=O (some centres undefined) | – | – | – | > 51.5 | – | > 51.5 | – | > 51.5 | – | > 51.5 | – | – | – | – | – | – | > 51.5 | – | – |
| COc1cc(/C=C2\N=C(c3ccccc3)N(/N=C3\C(=O)Nc4ccccc43)C2=O)cc(OC)c1OC | > 100 | > 100 | > 100 | > 100 | > 100 | > 100 | > 100 | > 100 | – | – | – | – | – | – | – | – | > 100 | – | – |
| Oc1ccc2c(c1)CC[N+]1=C2CCC2CCCC21 (centres undefined) | > 100 | – | – | > 100 | – | > 100 | – | – | – | – | – | – | – | – | – | – | – | – | – |
| O=C1c2ccccc2C(=O)c2c1ccc1c2N=C(c2ccc(F)cc2)CC(c2ccc(Cl)c(Cl)c2)N1 (centres undefined) | – | – | – | 25.8 | – | 20.3 | – | – | – | 19.3 | – | – | – | – | – | – | 33.5 | – | – |
| CCOC(=O)c1c2c(n3ccc(NC(=O)OC(C)(C)C)cc13)C(=O)c1ncccc1C2=O | – | 1.66 | – | 1.36 | 5.31 | 2.03 | 4.65 | 0.202 | 387 | 3.16 | 17.4 | – | 65.3 | – | 159 | 168 | – | 382 | 1210 |
| CC(=O)NC1C(OCc2ccccc2)OC(CO)C(O)C1OCC(=O)NC(C)C(=O)NC(CCC(=O)NCCCCCNc1c2ccccc2nc2cccc([N+](=O)[O-])c12)C(N)=O (centres undefined) | – | – | < 0.0001 | – | – | – | – | < 0.0001 | – | < 0.0001 | – | – | – | – | – | – | < 0.0001 | – | – |
| CCNC(=O)/C=C/CCC#Cc1ccc(-c2ccc(-c3cccs3)s2)s1 | > 100 | – | – | > 100 | – | > 100 | – | – | – | > 100 | – | – | – | – | – | – | – | – | – |
| O=C1CCCC2=C1C(c1ccc3c(c1)OCO3)Nc1ccc3ccccc3c12 (centres undefined) | > 100 | > 100 | > 100 | > 100 | – | > 100 | > 100 | > 100 | – | > 100 | – | – | – | – | – | – | – | – | – |
| NS(=O)(=O)c1ccc(Nc2c3ccccc3nc3c(C(=O)NCCCN(CCO)CCO)cccc23)cc1 | – | > 100 | 37.2 | 45.7 | 44.2 | > 100 | 53.8 | 20.1 | – | 78.7 | – | – | – | – | – | – | > 100 | – | – |
| CN1C/C(=C\c2ccc(Cl)cc2)C(=O)/C(=C/c2ccc(Cl)cc2)C1 | 1.22 | > 100 | > 100 | > 100 | > 100 | > 90.6 | > 100 | – | – | 0.895 | – | – | – | – | – | – | > 100 | – | – |
| CCN(CC)C(=S)N/N=C/c1ccccn1 | – | 1.27 | > 100 | > 100 | > 100 | > 100 | > 100 | 26 | – | > 100 | – | – | – | – | – | – | > 100 | – | – |
| COc1ccc(Oc2nc3ccc(C(F)(F)F)cc3nc2-c2ccccc2)cc1 | > 100 | > 100 | > 100 | > 100 | – | > 100 | > 100 | > 100 | – | > 100 | – | – | – | – | – | – | > 100 | – | – |
